Test [1] has as its target FKBP12/YY1 (Mus musculus, UniProt P26883). Put plainly: Co-immunoprecipitation after Yy1 pull-down in cultured TECs. It counts as cell-based. The following applies: FK506 added to culture media, IP: Yy1.
Experimental: (§1) CoIP was performed with Protein G Immunoprecipitation Kit (Roche, Basel, Switzerland). Protein A/G PLUS Agarose beads (Santa Cruz Biotechnology, Santa Cruz, USA) were used for the lysate pre-cleaning and pull-down. For each CoIP, 2×10^7 MCT cells have been used following the manufacturer's instructions. Yy1 (ab12132, Abcam Biochemicals, Cambridge, UK), Fkbp12 (ab2918, Abcam Biochemicals, Cambridge, UK), Arnt (3718, Cell Signaling, Danvers, USA), GFP (MA5-15256, Thermo Fisher Scientific, Waltham, USA) and myc-tag antibodies (2276, Cell Signaling, Danvers, USA) were used for immunoprecipitation, detection of co-immunoprecipitated Fkbp12 (ab12132, Abcam Biochemicals, Cambridge, UK), Hif1α ([MUT], Sigma, St. Louis, USA), Ahr (MA1-514, Thermo Fisher Scientific, Waltham, USA), GFP (MA5-15256, Thermo Fisher Scientific, Waltham, USA) and myc-tag (2276, Cell Signaling, Danvers, USA) was performed by immunoblotting.
Test [2] deals with murine TECs. The test can be described thus: Murine TEC cultures (MCT): mRNA expression (qRT-PCR), pSmad1/5/8 immunostaining, proliferation. Format: cell-based, mouse. The method, then:
HK-2 (ATTC, Manassas, USA) are immortalized proximal tubule epithelial cells derived from normal adult human kidney. The murine proximal tubular epithelial cell line MCT was generated from the renal cortex of SJL mice (75). All cells were routinely tested negative for the presence of mycoplasma contamination. None of the cell lines used in this manuscript is listed in the ICLAC and NCBI Biosample database of misidentified cell lines. Cells were cultured in Dulbecco's modified Eagle's (DMEM, Gibco, Carlsbad, USA) medium supplemented with 100 µg/mL penicillin, 100 µg/mL streptomycin and 10% heat-inactivated fetal bovine serum (FBS, Sigma, St. Louis, USA) at 37° C. in 5% CO2. For RNA extractions, cells were seeded in 6 well culture plates at 10^5 cells per well in antibiotic free standard growth medium. […] Cells were harvested for further analysis 6 hours after incubation. To examine de novo protein syntheses, cells were again plated in 6 well culture plates as initially described and then pre-treated with the translation blocker Cycloheximide (CHX, 10 μg/mL, Sigma, St. Louis, USA). After one hour of incubation, 200 pM FK506 was applied for additional 6 hours. One night before transfection, MCT cells were seeded in 6 well culture plates at a concentration of 1.5-2×10^5 per well in antibiotic-free DMEM (Gibco, Carlsbad, USA) supplemented with 10% heat-inactivated fetal bovine serum (FBS, Sigma, St. Louis, USA). For knockdown experiments, 60 pmol siRNA (Santa Cruz Biotechnology, Dallas, USA) or scrambled siRNA (scrRNA, Santa Cruz Biotechnology, Santa Cruz, USA) was transfected, for over-expression experiments, 2 μg plasmid DNA was transfected using Lipofectamine 2000 reagent (Invitrogen, Carlsbad, USA). After 4 hours of incubation, transfection medium was replaced by antibiotic-free medium and cells recovered overnight. For stimulation experiments, cells were stimulated the day after with […] FK506 (Abcam Biochemicals, Cambridge, UK) dissolved in DMSO and harvested after 6 hours of incubation for RNA and protein analysis. For SYBR-based real-time PCR, cDNA synthesis was performed by using DNase I digestion (Invitrogen, Carlsbad, USA) and SuperScript II Reverse Transcriptase (Invitrogen, Carlsbad, USA) according to the manufacturer's protocol. 1 μL of reverse-transcribed cDNA was added to the reaction mixture containing the primer pair (200 nmol/L each) and diluted 2× Fast SYBR Green Master Mix (Applied Biosystems, Carlsbad, USA) in a final volume of 20 μL for each PCR reaction. The real-time PCR reactions were performed in a 96-well reaction plate using the StepOne Plus Real-Time System (Applied Biosystems, Carlsbad, USA) and were done in triplicates. An initiation step at 95° C. for 20 seconds was followed by 40 cycles at 95° C. for 3 to seconds and 60° C. for 30 seconds, with one cycle of dissociation at 95° C. for 15 seconds, 60° C. for 60 seconds, and 95° C. for 15 seconds. The intercalation of SYBR Green dye and its fluorescent signal is directly proportional to the amount of amplified DNA and was transformed into the cycle threshold (Ct). For normalization, the Ct values of the housekeeping genes Gapdh and Actb were subtracted from the Ct values of the gene of interest to generate the dCt values. The relative expression levels were calculated using the equation 2^−ddCt.
A general note: Real-time PCR tracks product formation cycle by cycle.

Test [3] has as its system human proximal tubular epithelial cells (HK2 cells). The test can be described thus: Human TEC cultures (HK2 cells): ARNT/ALK3 and pSmad1/5/8. It counts as cell-based. The following applies: picomolar FK506. The method, then:
HK-2 (ATTC, Manassas, USA) are immortalized proximal tubule epithelial cells derived from normal adult human kidney. The murine proximal tubular epithelial cell line MCT was generated from the renal cortex of SJL mice (75). All cells were routinely tested negative for the presence of mycoplasma contamination. None of the cell lines used in this manuscript is listed in the ICLAC and NCBI Biosample database of misidentified cell lines. Cells were cultured in Dulbecco's modified Eagle's (DMEM, Gibco, Carlsbad, USA) medium supplemented with 100 µg/mL penicillin, 100 µg/mL streptomycin and 10% heat-inactivated fetal bovine serum (FBS, Sigma, St. Louis, USA) at 37° C. in 5% CO2. For RNA extractions, cells were seeded in 6 well culture plates at 10^5 cells per well in antibiotic free standard growth medium. […] Cells were harvested for further analysis 6 hours after incubation. To examine de novo protein syntheses, cells were again plated in 6 well culture plates as initially described and then pre-treated with the translation blocker Cycloheximide (CHX, 10 μg/mL, Sigma, St. Louis, USA). After one hour of incubation, 200 pM FK506 was applied for additional 6 hours. […] The relative expression levels were calculated using the equation 2^−ddCt.

The subject of test [4] is intrarenal ARNT and ALK3 transcription. The note with it: GSE1563; regimens including FK506 compared to CsA; cited from earlier work.
The subject of test [5] is ARNT/HIF1α, ARNT/AHR. Put plainly: Co-immunoprecipitation using antibodies to ARNT in cultured TECs. It counts as cell-based, mouse. The following applies: cultured TECs in response to FK506 (200 pM), IP: Arnt.
Experimental: as §1

SMILES strings stand for the structures.

Chain of FKBP12/YY1 (P26883 whole entry): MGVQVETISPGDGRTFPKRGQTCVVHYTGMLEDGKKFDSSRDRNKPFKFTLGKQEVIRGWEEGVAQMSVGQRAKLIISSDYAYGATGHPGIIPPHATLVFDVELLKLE

On to `C=CC[C@@H]1/C=C(\C)C[C@H](C)C[C@H](OC)[C@H]2O[C@@](O)(C(=O)C(=O)N3CCCC[C@H]3C(=O)O[C@H](/C(C)=C/[C@@H]3CC[C@@H](O)[C@H](OC)C3)[C@H](C)[C@@H](O)CC1=O)[C@H](C)C[C@@H]2OC` [FK506, tacrolimus], for which, in test [1], the FKBP12/YY1 interaction result is “not detectable”. Further, the “induction of ALK3 transcription” value in test [2] (TECs depleted for HIF1α (Hif1akd) or AHR (Ahrkd)) is “preserved effectiveness”. Besides, the “mRNA expression levels of AR, ARNT, CEBPB, CREB1, GATA3, MAX (qRT-PCR)” value in test [2] (TECs upon exposure to FK506) is “increased”. Further, the “ALK3 transcription or nuclear pSmad1/5/8 accumulation” value in test [2] (TECs with ARNT depleted (Arntkd)) is “failed to induce”. Moreover, in test [2] (TECs with Cycloheximide (CHX, 10 μg/mL)), the “ALK3 transcription and canonical BMP signaling responses (nuclear pSmad1/5/8)” value is “failed to induce”. Also, in test [2] (TECs with FKBP12 or YY1 depletion, FK506 supplemented), the “ARNT mRNA and protein levels” value is “did not additionally induce”. Also, the “ALK3 transcription and BMP signaling responses” value in test [2] (TECs with YY1 depleted (Yy1kd), FK506 supplemented) was “did not additionally induce”. The ARNT transcription entry in test [2] (cultured TECs, FK506 added to culture media) is given as “transcriptional ARNT induction”. Besides, the pSmad1/5/8 result in test [2] (murine TECs) was “accumulation of pSmad1/5/8”. In addition, in test [3], the “ARNT and ALK3 transcription” value is on record as “equally induced”; the “nuclear pSmad1/5/8” value was “nuclear accumulation of pSmad1/5/8”. For the same compound, the “intrarenal ARNT and ALK3 transcription” value in test [4] is on record as “enhanced”. Further, the “ARNT/HIF1α or ARNT/AHR interaction” value in test [5] is on record as “did not provide evidence”.

These data come from US12440479B2, “Prevention or treatment of chronic organ injury” (GEORG-AUGUST-UNIVERSITAET GOETTINGEN, STIFTUNG …, priority 2018, dated 2025).
